Converted amounts (≈) assume the structure as drawn.
How the values were obtained:
[1] = test system: participants with treatment-resistant depression (TRD); assay: Montgomery-Asberg Depression Rating Scale (MADRS), Phase IIb open-label study of psilocybin adjunct to SSRI; format: in vivo, human; details: for MADRS total score, Mean (SD) / MADRS Remitters (MADRS total score ≤10) / MADRS Responders (≥50% decrease in MADRS total score from baseline) / MADRS total score, Change from baseline Mean (SD): 25 mg + SSRI, N = 19
Experimental: The effectiveness of 25 mg COMP360 as an adjunctive therapy in participants with TRD was explored.
The study was a Phase IIb, international multicentre, fixed-dose, open-label study. The study population included adult men and women, 18 years of age or older, with TRD. […] The duration of the current episode must be at least 3 months but not more than 2 years.
The psilocybin administration session (V3, day 1) will last approximately 6 h and will be supported by a trained therapist. The study drug will be administered simultaneously to up to six participants. Blood pressure will be monitored continuously during the session. The COMP360 administration session may be video recorded for training and adherence monitoring. After the acute effects of psilocybin pass, participants will be evaluated for safety and accompanied home. On day 2 (V4), the day following psilocybin administration, participants will be seen in person for a safety check, assessment of suicidality and clinical and self-report assessments, and to discuss their experience during the psilocybin administration session. All sessions between the therapist and the participant may be audio recorded for adherence monitoring and quality assurance.
The primary objective of this study is to evaluate the efficacy of 25 mg of psilocybin adjunct to serotonergic antidepressants in TRD participants, as assessed by the change in the Montgomery-Asberg Depression Rating Scale (MADRS) total score from baseline. Baseline is defined as the assessment score obtained on Day −1. The primary time point is week 3.
(§1) Additional objectives of this study are to assess the efficacy of psilocybin […] on the: • (a) proportion of subjects with response defined as a ≥50% decrease in MADRS total score from baseline to week 3. • (b) proportion of subjects with remission (defined as a MADRS total score ≤10) at week 3 post psilocybin administration. • (c) changes from baseline Clinical Global Impression-Severity scale (CGI-S) at week 3 post psilocybin administration.

[2] = test system: participants with treatment-resistant depression (TRD); assay: Clinical Global Impression - Severity scale (CGI-S), same study; format: in vivo, human; details: for CGI-S Responders: 25 mg + SSRI, N = 19
Experimental: as §1

[3] = test system: participants with treatment-resistant depression (TRD); assay: Clinical Global Impression - Improvement scale (CGI-I), same study; format: in vivo, human; details: 25 mg + SSRI, N = 19
[4] = test system: participants with treatment-resistant depression (TRD); assay: Safety: treatment emergent adverse events (TEAE), same study; format: in vivo, human
Description: Another objective is to evaluate the safety and tolerability of psilocybin in subjects with TRD based on AEs, changes in vital signs, and suicidal ideation/behaviour (measured using the Columbia-Suicide Severity Rating Scale [C-SSRS]) score at all visits.
Throughout the course of the study, all adverse events (AEs) will be monitored and recorded and will include the AE's description, start and end date, seriousness, severity, action taken, and relationship to the treatment. If AEs occur, the first concern will be the safety of the study subjects.
An AE can therefore be any unfavorable and unintended sign (including an abnormal laboratory finding, for example), symptom, or disease temporally associated with the use of a medicinal product, whether considered related to the medicinal product.
AEs will be coded by Preferred Term (PT) using the Medical Dictionary for Regulatory Activities (MedDRA) classification. All reported AEs with onset or worsening after the administration of study medication will be included in the analysis. The incidence of AEs will be summarized by treatment group, and by severity and relationship to psilocybin. Serious AEs and AEs leading to withdrawal from the study will be tabulated.
A TEAE is defined as any AE that has an onset on or after the dose of psilocybin, or any pre-existing condition that has worsened on or after the dose of psilocybin.
The incidence of TEAEs and treatment-related AEs will also be summarized by maximum severity and most-related relationship to psilocybin by MedDRA primary system organ class and PT. The summary will include the total number and percentage of subjects reporting an event.

[5] = week 3, single 25 mg dose adjunct to SSRI
[6] = 25 mg adjunct to SSRI, 19 patients
[7] = on the day of dosing or the day after
[8] = severity mild, 25 mg + SSRI, N = 19
[9] = severity moderate, 25 mg + SSRI, N = 19

CN(C)CCc1c[nH]c2cccc(OP(=O)(O)O)c12 [COMP360, psilocybin]
MADRS total score, Mean (SD) ([1]; Baseline (before dosing)): 31.7 (5.77)
MADRS Remitters (MADRS total score ≤10) ([1]; Day 2): 10 (52.6) n (%)
MADRS Responders (≥50% decrease in MADRS total score from baseline) ([1]; Day 2): 12 (63.2) n (%)
MADRS total score, Change from baseline Mean (SD) ([1]; Day 2): −18.3 (11.85)
MADRS total score, Mean (SD) ([1]; Day 2): 13.4 (12.92)
MADRS Remitters (MADRS total score ≤10) ([1]; Week 1): 9 (47.4) n (%)
MADRS Responders (≥50% decrease in MADRS total score from baseline) ([1]; Week 1): 11 (57.9) n (%)
MADRS total score, Change from baseline Mean (SD) ([1]; Week 1): −17.1 (11.29)
MADRS total score, Mean (SD) ([1]; Week 1): 14.6 (11.88)
MADRS Remitters (MADRS total score ≤10) ([1]; Week 2): 8 (42.1) n (%)
MADRS Responders (≥50% decrease in MADRS total score from baseline) ([1]; Week 2): 11 (57.9) n (%)
MADRS total score, Change from baseline Mean (SD) ([1]; Week 2): −15.7 (12.02)
MADRS total score, Mean (SD) ([1]; Week 2): 16.0 (11.70)
MADRS Remitters (MADRS total score ≤10) ([1]; Week 3): 8 (42.1) n (%)
MADRS Responders (≥50% decrease in MADRS total score from baseline) ([1]; Week 3): 8 (42.1) n (%)
MADRS total score, Change from baseline Mean (SD) ([1]; Week 3): −14.9 (11.97)
MADRS total score, Mean (SD) ([1]; Week 3): 16.8 (11.62)
proportion of participants who were MADRS remitters ([1]; by week 3, single 25 mg dose adjunct to SSRI): ~ 42%
proportion of participants who were MADRS responders [1, 5]: ~ 42%
average reduction in MADRS total score from baseline ([1]; week 3, single 25 mg dose adjunct to SSRI, 19 patients): 14.9
CGI-S Responders ([2]; Day 2): 8 (42.1) n (%)
CGI-S Responders ([2]; Week 1): 12 (63.2) n (%)
CGI-S Responders ([2]; Week 2): 11 (57.9) n (%)
CGI-S Responders ([2]; Week 3): 10 (52.6) n (%)
average CGI-S score ([2]; baseline ("moderately ill")): 4
average CGI-S score ([2]; week 3 ("mildly ill"), single 25 mg dose adjunct to SSRI): 3
proportion of participants who were CGI-S responders [2, 5]: 52.6%
CGI-I Responders ([3]; Day 2): 11 (57.9) n (%)
CGI-I Responders ([3]; Week 1): 12 (63.2) n (%)
CGI-I Responders ([3]; Week 2): 8 (42.1) n (%)
CGI-I Responders ([3]; Week 3): 7 (36.8) n (%)
TEAEs classed as serious (TESAEs) [4, 6]: no TEAEs classed as serious
TEAEs related to suicidal ideation or behaviour or intentional self-injury [4, 6]: no TEAEs related to suicidal ideation or behaviour or intentional self-injury
tolerability [4, 6]: generally well tolerated
resolution of headache TEAE ([4]; all cases): all cases resolved in one or two days
most common TEAE headache, events [4, 7]: 6 events
most common TEAE headache, participants [4, 7]: 6 participants
TEAE Blood pressure increase [4, 8]: 1 (5.3) n (%)
TEAE Diarrhoea [4, 8]: 1 (5.3) n (%)
TEAE Dizziness [4, 8]: 1 (5.3) n (%)
TEAE Dry mouth [4, 8]: 1 (5.3) n (%)
TEAE Fall [4, 8]: 1 (5.3) n (%)
TEAE Headache [4, 8]: 5 (26.3) n (%)
TEAE Palpitations [4, 8]: 1 (5.3) n (%)
TEAE Skin abrasion [4, 8]: 1 (5.3) n (%)
TEAE Vertigo [4, 8]: 1 (5.3) n (%)
TEAE Depression [4, 9]: 1 (5.3) n (%)
TEAE Headache [4, 9]: 1 (5.3) n (%)
TEAE Hypertension ([4]; severity severe, 25 mg + SSRI, N = 19): 1 (5.3) n (%)
solubility (Solubility in water): ~15 mg/mL (≈ 52.8 mM)
